Reference: US20230295133A1, “PROCESS FOR PREPARING A COMPOUND USEFUL TO TREAT MYCOSES” (PULMOCIDE LIMITED, priority 2014, published 2023)
Converted amounts (≈) assume the structure as drawn.

Experiments:
[1] = system: aspergillus fumigatus infection of BEAS2B cells; experiment: Aspergillus fumigatus infection of bronchial epithelial cells (GM in supernatant); type: cell-based; settings: bronchial epithelial cells infected with Aspergillus fumigatus; read-out: MIC50 Infection of BEAS2B cells
Description: BEAS2B cells were seeded in 96-well plates (100 µL; 30,000 cells / well; Catalogue No 3596, Sigma Aldrich, Dorset, UK) in 10% FBS RPMI-1640 and were then incubated (37° C., 5% CO2) for one day before experimentation. Test compounds (0.5 µL DMSO solution) or vehicle (DMSO) were added to each well to give a final DMSO concentration of 0.5%. BEAS2B cells were incubated with test compounds for 1 hr (35° C., 5% CO2) before infection with aspergillus fumigatus (20 µL; Public Health England) conidia suspension (0.5×10^5 /ml in 10% FBS RPMI-1640). The plate was incubated for 24 hr (35° C., 5% CO2). Supernatant (50 µL) was collected and transferred to a PCR plate (Catalogue No L1402-9700, Starlab, Milton Keynes, UK), which was frozen (-20° C.) until use. After thawing, supernatant (5 µL) was diluted 1:20 by adding R7-PBS solution (95 µL; 1:4 R7 to PBS; Bio-Rad Laboratories, Redmond, WA, USA). GM levels in these samples (50 µL) were measured using Platelia GM-EIA kits (Bio-Rad Laboratories, Redmond, WA, USA). The percentage inhibition for each well was calculated and the IC50 value was calculated from the concentration-response curve generated for each test compound.

[2] = Cell viability: resazurin assay; type: cell-based, human; settings: human, BEAS2B cells; n = 3-5
Description: BEAS2B cells were seeded in 384-well plates (100 µL; 3000 / well /; BD Falcon, Catalogue No 353962) in RPMI-LHC8 (RPMI-1640 and LHC8 media combined in equal proportions) one day before experimentation. For cell-free control wells, RPMI-LHC8 (100 µL) was added. Test compounds (0.5 µL of a DMSO solution) were added to give a final DMSO concentration of 0.5% using an Integra VIAFLO 96 (Integra, Zizers, Switzerland). BEAS2B cells were incubated with each test compound for 1 day (37° C. / 5% CO2 in RPMI-LHC8). After addition of resazurin stock solution (5 µL, 0.04%) the plates were incubated for a further 4 hr (37° C. / 5% CO2). The fluorescence of each well at 545 nm (excitation) and 590 nm (emission) was determined using a multi-scanner (Clariostar: BMG Labtech). The percentage loss of cell viability was calculated for each well relative to vehicle (0.5% DMSO) treatment. Where appropriate, a CC50 value was calculated from the concentration-response curve generated from the concentration-response curve for each test compound.

[3] = system: Aspergillus fumigatus NCPF2010; experiment: Broth microdilution assay (modified EUCAST); type: cell-based; settings: Aspergillus fumigatus, NCPF2010, read-out: MIC75 against Aspergillus fumigatus isolate NCPF2010
Description: (§1) This assay was conducted using a modified method published by EUCAST (Rodriguez-Tudela et al., 2008). Spores of aspergillus fumigatus (NCPF2010, NCPF7010 (Methionine 220 mutation), NCPF7099 (Glycine G54 mutation) from Public Health England, Wiltshire; TR34/L98H mutants from St Louis Hospital, Paris, France) were cultured in Sabouraud dextrose agar for 3 days. A stock spore suspension was prepared from a Sabouraud dextrose agar culture by washing with PBS-tween (10 mL; PBS containing 0.05% Tween-20, 100 U/mL Penicillin and 100 U/mL Streptomycin). The spore count was assessed using a Neubauer haemocytometer and then adjusted to 10^6 spores/mL with PBS. A working suspension of spores (2 × 10^5 spores/mL) was prepared in filter sterilised, BSA MOPS RPMI-1640 (50 mL; RPMI-1640 containing 2 mM L-glutamine, 0.5% BSA, 2% glucose, 0.165 M MOPS, buffered to pH 7 with NaOH). For the assay, BSA MOPS RPMI-1640 (50 µL/well) was added throughout the 384-well plate (Catalogue number 353962, BD Falcon, Oxford, UK) first. Test compounds (0.5 µL DMSO solution) were then added in quadruplicate using an Integra VIAFLO 96 (Integra, Zizers, Switzerland), and mixed well using a plate mixer. Subsequently 50 µL of the working spore suspension prepared above was added to all wells except non-spore control wells. For non-spore control wells, BSA MOPS-RPMI solution (50 µL/well) was added instead. The plate was covered with a plastic lid, and incubated (35° C. with ambient air) for 48 hr. The OD of each well at 530 nm was determined using a multi-scanner (Clariostar: BMG, Buckinghamshire, UK). The percentage inhibition for each well was calculated and the MIC50, MIC75 and MIC90 values were calculated from the concentration-response curve generated for each test compound.

[4] = system: Aspergillus fumigatus NCPF7099; experiment: Broth microdilution assay (modified EUCAST); type: cell-based; settings: Aspergillus fumigatus, NCPF7099, n = 3, read-out: MIC75 against Aspergillus fumigatus isolate NCPF7099
Description: as §1

[5] = system: Aspergillus fumigatus L98H (TR34/L98H); experiment: Broth microdilution assay (modified EUCAST); type: cell-based; settings: Aspergillus fumigatus, read-out: MIC75 against Aspergillus fumigatus isolate L98H
Description: as §1

[6] = system: Aspergillus fumigatus NCPF7100; experiment: Broth microdilution assay (modified EUCAST); type: cell-based; settings: Aspergillus fumigatus, NCPF7100, read-out: MIC75 against Aspergillus fumigatus isolate NCPF7100
[7] = system: aspergillus fumigatus (ATCC 13073 [strain: NIH 5233]); experiment: In vivo anti-fungal activity, prophylactic and therapeutic treatment of infected immunocompromised neutropenic mice; set-up: species or system A/J mice; settings: prophylactic treatment (days 0, 1, 2 and 3); 0.4 mg/mL

Structure (SMILES) | MIC50 [1] [µM] | CC50 at 1 day [2] [µM] | MIC [3] [µM] | MIC [4] [µM] | MIC [5] [µM] | MIC [6] [µM] | % Inhibition versus Infected Controls, GM in BALF [7] [%] | % Inhibition versus Infected Controls, GM in serum [7] [%] | % Inhibition versus Infected Controls, Lung Fungal Load [7] [%]
Cc1cc(N2CCN(c3ccc(C(=O)Nc4cccc(C#N)n4)cc3)CC2)ccc1OC[C@@H]1CO[C@@](Cn2cncn2)(c2ccc(F)cc2F)C1 [Example 36, 4-(4-(4-(((3R, 5R)-5-((1H-1,2,4-triazol-1-yl)methyl)-5-(2,4-difluorophenyl)tetrahydrofuran-3-yl)methoxy)3-methylphenyl)piperazin-1-yl)-N-(6-cyanopyridin-2-yl)benzamide] | 0.00352 (≈ 0.00243 µg/mL) | > 14.5 | 0.041 (≈ 0.0283 µg/mL) | 0.0445 (≈ 0.0307 µg/mL) | 0.134 (≈ 0.0926 µg/mL) | 0.0346 (≈ 0.0239 µg/mL) |  |  | 
COc1cc(C(=O)Nc2ccc(F)cc2)ccc1N1CCN(c2ccc(OC[C@@H]3CO[C@@](Cn4cncn4)(c4ccc(F)cc4F)C3)c(C)c2)CC1 [Example 34, 4-(4-(4-(((3R, 5R)-5-((1H-1,2,4-triazol-1-yl)methyl)-5-(2,4-difluorophenyl)tetrahydrofuran-3-yl)methoxy)3-methylphenyl)piperazin-1-yl)-N-(4-fluorophenyl)-3-methoxybenzamide] | 0.0219 (≈ 0.0156 µg/mL) | > 14 | 0.0446 (≈ 0.0318 µg/mL) | 0.029 (≈ 0.0207 µg/mL) | 0.0739 (≈ 0.0527 µg/mL) | 0.0148 (≈ 0.0105 µg/mL) |  |  | 
Cc1cc(N2CCN(c3ccc(C(=O)Nc4ccc(C#N)cc4)cc3)CC2)cc(C)c1OC[C@@H]1CO[C@@](Cn2cncn2)(c2ccc(F)cc2F)C1 [Example 11, 4-(4-(4-(((3R, 5R)-5-((1H-1,2,4-triazol-1-yl)methyl)-5-(2,4-difluorophenyl)tetrahydrofuran-3-yl)methoxy)-3,5-dimethylphenyl)piperazin-1-yl)-N-(4-cyanophenyl)benzamide] | 0.284 (≈ 0.2 µg/mL) | > 14.2 | 0.0236 (≈ 0.0166 µg/mL) | 0.049 (≈ 0.0345 µg/mL) | 0.179 (≈ 0.126 µg/mL) | 0.0529 (≈ 0.0372 µg/mL) |  |  | 
Cc1cc(N2CCN(c3ccc(C(=O)Nc4cccc(F)c4)cc3)CC2)ccc1OC[C@@H]1CO[C@@](Cn2cncn2)(c2ccc(F)cc2F)C1 [Example 14, 4-(4-(4-(((3R, 5R)-5-((1H-1,2,4-triazol-1-yl)methyl)-5-(2,4-difluorophenyl)tetrahydrofuran-3-yl)methoxy)3-methylphenyl)piperazin-1-yl)-N-(3-fluorophenyl)benzamide] | 0.00836 (≈ 0.00571 µg/mL) | > 14.6 | 0.0431 (≈ 0.0294 µg/mL) | 0.0332 (≈ 0.0227 µg/mL) | 0.0735 (≈ 0.0502 µg/mL) | 0.041 (≈ 0.028 µg/mL) |  |  | 
O=C(Nc1ccc(F)cc1)c1ccc(N2CCN(c3ccc(OCC4CO[C@@](Cn5cncn5)(c5ccc(F)cc5F)C4)c(Cl)c3)CC2)cc1 (stereo in doubt) [Example 18, 4-(4-(4-(((3R,5R)-5-((1H-1,2,4-triazol-1-yl)methyl)-5-(2,4-difluorophenyl)tetrahydrofuran-3-yl)methoxy)-3-chlorophenyl)piperazin-1-yl)-N-(4-fluorophenyl)benzamide] | 0.0866 (≈ 0.0609 µg/mL) | > 14.2 | 0.0222 (≈ 0.0156 µg/mL) | 0.011 (≈ 0.00773 µg/mL) | 0.0733 (≈ 0.0515 µg/mL) | 0.0471 (≈ 0.0331 µg/mL) |  |  | 
COc1cc(N2CCN(c3ccc(OC[C@@H]4CO[C@@](Cn5cncn5)(c5ccc(F)cc5F)C4)c(C)c3)CC2)ccc1C(=O)Nc1ccc(F)cc1 [Example 35, 4-(4-(4-(((3R,5R)-5-((1H-1,2,4-triazol-1-yl)methyl)-5-(2,4-difluorophenyl)tetrahydrofuran-3-yl)methoxy)-3-methylphenyl)piperazin-1-yl)-N-(4-fluorophenyl)-2-methoxybenzamide] | 0.125 (≈ 0.0891 µg/mL) | > 14 | 0.0634 (≈ 0.0452 µg/mL) | 0.109 (≈ 0.0777 µg/mL) | 0.178 (≈ 0.127 µg/mL) | 0.111 (≈ 0.0791 µg/mL) |  |  | 
N#Cc1ccc(NC(=O)c2ccc(N3CCN(c4ccc(OCC5CO[C@@](Cn6cncn6)(c6ccc(F)cc6F)C5)c(F)c4)CC3)cc2)c(F)c1 (stereo in doubt) [Example 24, 4-(4-(4-(((3R, 5R)-5-((1H-1,2,4-triazol-1-yl)methyl)-5-(2,4-difluorophenyl)tetrahydrofuran-3-yl)methoxy)3-fluorophenyl)piperazin-1-yl)-N-(4-cyano-2-fluorophenyl)benzamide] |  | > 14.1 | 0.0099 (≈ 0.00705 µg/mL) | 0.0205 (≈ 0.0146 µg/mL) | 0.191 (≈ 0.136 µg/mL) | 0.014 (≈ 0.00996 µg/mL) |  |  | 
Cc1cc(N2CCN(c3ccc(C(=O)Nc4ccc(F)c(F)c4)cc3)CC2)ccc1OC[C@@H]1CO[C@@](Cn2cncn2)(c2ccc(F)cc2F)C1 [Example 27, 4-(4-(4-(((3R, 5R)-5-((1H-1,2,4-triazol-1-yl)methyl)-5-(2,4-difluorophenyl)tetrahydrofuran-3-yl)methoxy)-3-methylphenyl)piperazin-1-yl)-N-(3,4-difluorophenyl)benzamide] |  | > 14.3 | 0.0193 (≈ 0.0135 µg/mL) | 0.0127 (≈ 0.0089 µg/mL) | 0.136 (≈ 0.0953 µg/mL) | 0.0223 (≈ 0.0156 µg/mL) |  |  | 
Cc1cc(N2CCN(c3ccc(C(=O)Nc4ccc(OC(F)(F)F)cn4)cc3)CC2)ccc1OC[C@@H]1CO[C@@](Cn2cncn2)(c2ccc(F)cc2F)C1 [Example 39, 4-(4-(4-(((3R,5R)-5-((1H-1,2,4-triazol-1-yl)methyl)-5-(2,4-difluorophenyl)tetrahydrofuran-3-yl)methoxy)-3-methylphenyl)piperazin-1-yl)-N-(5-(trifluoromethoxy)pyridin-2-yl)benzamide] |  | > 13.3 | 0.052 (≈ 0.039 µg/mL) |  | 0.0659 (≈ 0.0494 µg/mL) |  |  |  | 
Cc1cc(N2CCN(c3ccc(C(=O)Nc4ccc(Cl)cn4)cc3)CC2)ccc1OC[C@@H]1CO[C@@](Cn2cncn2)(c2ccc(F)cc2F)C1 [Example 41, 4-(4-(4-(((3R, 5R)-5-((1H-1,2,4-triazol-1-yl)methyl)-5-(2,4-difluorophenyl)tetrahydrofuran-3-yl)methoxy)-3-methylphenyl)piperazin-1-yl)-N-(5-chloropyridin-2-yl)benzamide] |  | > 14.3 | 0.0576 (≈ 0.0403 µg/mL) |  | 0.261 (≈ 0.183 µg/mL) |  |  |  | 
O=C(Nc1ccc(F)cc1)c1ccc(N2CCN(c3ccc(OCC4CO[C@@](Cn5cncn5)(c5ccc(F)cc5F)C4)c(F)c3)CC2)cc1 (stereo in doubt) [Example 17, 4-(4-(4-(((3R, 5R)-5-((1H-1,2,4-triazol-1-yl)methyl)-5-(2,4-difluorophenyl)tetrahydrofuran-3-yl)methoxy)-3-fluorophenyl)piperazin-1-yl)-N-(4-fluorophenyl)benzamide] |  | > 14.6 | 0.00215 (≈ 0.00148 µg/mL) | 0.0185 (≈ 0.0127 µg/mL) | 0.409 (≈ 0.281 µg/mL) | 0.0133 (≈ 0.00913 µg/mL) | 45 | 72 | 83
